Key:
[1] = tested on: H. pylori; experiment: Survival / MBC of H. pylori in standard incubations (40 min, 37° C., pH 7.4); format: cell-based, Helicobacter pylori; conditions: for effect on H. pylori viability of each ingredient by itself at low concentration: 0.3 mM FA C12:0, 0.05% Tween 20, 200 μg/ml lansoprazole, each alone
Experimental: FIG. 1 The survival of H. pylori in the presence of: FA C12:0 only (▴); FA C12:0 plus 100 μg/mL lansoprazole ([…]); FA C12:0 plus 200 μg/mL lansoprazole (▪); FA C12:0 plus 300 μg/mL lansoprazole (▾); FA C12:0 plus 400 μg/mL lansoprazole (♦); FA C12:0 plus 0.05% (w/w) Tween 20 (Δ); FA C12:0 plus 100 μg/mL lansoprazole plus 0.05% (w/w) Tween 20 (◯); FA C12:0 plus 200 μg/mL lansoprazole plus 0.05% (w/w) Tween 20 (□). Cells were incubated at pH 7.4 for 40 min at 37° C.
FIG. 2 The effect of lansoprazole on the survival of H. pylori in the presence of 0.05% Tween 20 (▴), and in its absence (Δ). Cells were incubated at pH 7.4 for 40 min at 37° C.
FIG. 4 The effect of monolaurin (MG C12) on survival of H. pylori in the absence (squares) and presence (diamonds) of Tween 80 (0.4%, w/v), after 40 min exposure at 37° C. and initial pH 7.4.
These can be selected from any one or more of capric acid, lauric acid, myristic acid, myristoleic acid, palmitoleic acid, linolenic acid, monolaurin or monomyristin for example. This list is not intended to be limiting. Reference can also be made to Table 1 of Sun et al FEMS Immun. Med. Microbiol. 36, 9-17, 2003 (the disclosure of which is included herein by way of reference). The MBC is the minimum concentration of agent(s) that result(s) in a 5 log units decrease in viable cell numbers.
The effects of combinations of lansoprazole (0-400 μg/mL), 0.05% Tween 20, and FA C12:0 (0.1-1.0 mM) on the viability of H. pylori were examined in standard incubations. The results are shown in FIG. 1, and the MBCs for FA C12:0, with different combinations of lansoprazole and Tween 20, are summarised in Table 1.
Experiments to Examine Possible Interactions Between Monolaurin (MG C12) and Tween 80. The concentration profile of monolaurin on the survival of H. pylori was tested in the presence and absence of 0.4% (w/v) Tween 80, and the results are shown in FIG. 4. MG C12 on its own, has little effect in the range 0-0.3 mM. However in the range 0.3-0.5 mM MG C12 there is a sharp increase in bactericidal potency, and the killing increased by >5 log units (FIG. 4, squares).

[2] = tested on: Helicobacter pylori in mucus; experiment: In vitro mucus/H. pylori test chamber model: survival of H. pylori in pig gastric mucus; format: cell-based, Helicobacter pylori (NCTC 11637)
Description: FIG. 3 Diagram of apparatus used to model the mucus layer in digestive tract. This test chamber was designed as an in vitro model to investigate the barrier effect of mucus in protecting H. pylori from agents present in the lumen of the stomach. […] The mucus layer (C2), contains H. pylori, with numbers of colony forming units as specified. It is held as a 1 mm thick disc between the test chamber base (B and C4) and a stainless steel mesh (A and C1). This was then inserted into a Falcon tube containing broth (D). • A. Screw top lid with a recessed top containing a stainless steel grid. • B. Base with recessed well 1 mm deep×10 mm diameter that contains mucus (shaded area—see C2) • C. Cross sectional view of chamber (A & B). 1—stainless steel mesh, 2=mucus, 3=screw top lid, 4=base • D. Chamber in a Falcon tube covered with Iso-sensitest broth (with or without additives). An H. pylori (NCTC 11637) culture was mixed with pig gastric mucus for 40 min, and then H. pylori colonies were re-isolated by dilution and plating. The re-isolated strain was used in the experiments below. PCR of the 16S rDNA piece and sequencing was used to confirm that the re-isolated bacterial strain was H. pylori. H. pylori was grown by plating on Columbia agar (Oxoid) with 5% horse serum (Fort Richard) at 37° C. for 48 h under microaerophilic conditions (80% nitrogen, 15% carbon dioxide, 5% oxygen). Two loops of 48 h agar plate culture were inoculated into pre-warmed (37° C.) Iso-sensitest broth (Oxoid) containing 5% horse serum and incubated for 24 h under microaerophilic conditions. This 24 h H. pylori broth culture (500 μL) was added to 3.5 g of thawed pre-warmed pig gastric mucus (previously frozen at −20° C.) and mixed. […] Final concentrations of surviving H. pylori colony forming units (cfu) were calculated per gram of mucus. […] Abbreviations used are: FA=0.1 or 0.2 mM lauric acid; TW=0.05% Tween 20; OM=0.58 mM omeprazole; NAC=0.245 M N-acetylcysteine. • (a) Calculated H. pylori cfu's initially added per gram of mucus. […]

| SMILES | effect on H. pylori viability of each ingredient by itself at low concentration [1] | MBC ([1]; Helicobacter pylori, 40 min, MBC of FA C12:0 in medium with the stated additions, 40 min incubation with H. pylori at 37° C. and pH 7.4, MBC = concentration giving 5 log units decrease in viable cells, read-out: MBC (minimal bactericidal concentration of FA C12:0)) [µM] | effect of FA on its own on H. pylori survival in mucus ([2]; 0.1 mM FA experiment) | H. pylori numbers (cfu per g mucus) using 0.1 mM FA ([2]; 0.1 mM lauric acid, TW=0.05% Tween 20, OM=0.58 mM omeprazole, NAC=0.245 M N-acetylcysteine, 40 min, 37° C., pH 7.0, broth-alone control 1.29 × 10^6) | H. pylori numbers (cfu per g mucus) using 0.2 mM FA ([2]; 0.2 mM lauric acid, TW=0.05% Tween 20, OM=0.58 mM omeprazole, NAC=0.245 M N-acetylcysteine, 40 min, 37° C., pH 7.0, broth-alone control 2.64 × 10^4) | killing of H. pylori ([1]; 0.5 mM monolaurin in the absence of Tween 80, 40 min, 37° C., initial pH 7.4) [logs] | killing of H. pylori ([1]; 0.5 mM monolaurin with 0.4% Tween 80 present, 40 min, 37° C., initial pH 7.4) [logs] | effect of MG C12 on its own on survival of H. pylori ([1]; range 0-0.3 mM MG C12, no Tween 80, 40 min, 37° C., initial pH 7.4) | increase in killing of H. pylori ([1]; range 0.3-0.5 mM MG C12 on its own, 40 min, 37° C., initial pH 7.4) [log units] | effect of lansoprazole by itself on H. pylori in vitro ([1]; concentrations below 400 μg/mL, Midolo et al observation, confirmed by FIG. 2 (pH 7.4, 40 min, 37° C.)) |
| --- | --- | --- | --- | --- | --- | --- | --- | --- | --- | --- |
| CCCCCCCCCCCC(=O)O [FA C12:0, lauric acid] | no effect | 1000 | minimal effect | 1.85 × 10^5 cfu per g mucus | 2.59 × 10^4 cfu per g mucus |  |  |  |  |  |
| CCCCCCCCCCCC(=O)OCC(O)CO (centres unmarked) [MG C12, monolaurin] |  |  |  |  |  | > 5 | 3 | little effect | > 5 |  |
| Cc1c(OCC(F)(F)F)ccnc1C[S+]([O-])c1nc2ccccc2[nH]1 (centres unmarked) [lansoprazole, reference compound] | no effect |  |  |  |  |  |  |  |  | little effect |

From patent US20080214618A1, “Gastric Therapies Amd Compositions Therefor” (Auckland Uniservices Limited, priority 2004, published 2008)
